In patent publication US12673022B2, “Drug delivery system using solution” (Kyoto University, priority 2018, dated 2026):

How the values were obtained:
[1] = system: C57BL/6J mouse right lower limb gastrocnemius; assay: DNA mutation introduction efficiency using mRosa26 gRNA (T7E1 assay) after local administration; assay type: in vivo
Experimental: Cas9 protein (20 μg), mRosa26 gRNA (5 μg), 10×PBS (5 μL) and a 2.0 M aqueous 2′-deoxycytidine solution (6.25 μL) were mixed so as to obtain an aqueous solution having final concentrations of 400 ng/μL Cas9 protein, 100 ng/μL mRosa26 gRNA, 533 mM sodium chloride and 250 mM 2′-deoxycytidine. The concentration of the resultant solution was adjusted to be 533 mM with a 5 M aqueous sodium chloride solution, diluted with UltraPure DNase/RNase-Free Distilled Water up to a liquid volume of 50 μL and incubated at normal temperature for 15 minutes. […] The Cas9 protein herein was subjected to buffer replacement with 250 mM sodium chloride by use of Amicon® Ultra 2 mL Centrifugal Filters and then put in use.
Cas9 protein (40 μg), mRosa26 gRNA (10 μg), 10×PBS (5 μL), and a […] compound stock solution (25 μL) were mixed so as to obtain final concentrations: 800 ng/μL Cas9 protein, 200 ng/μL mRosa26 gRNA, 533 mM sodium chloride and 250 mM compound. […]
To the right lower limb gastrocnemius of each of 9 weeks-old male C57BL/6J mice (CLEA Japan, Inc), administration solution 1 or administration solution 2 and PBS (50 μL) were administered. […] The resultant PCR product was purified by QIAquick PCR purification kit (QIAGEN), treated with T7 Endonuclease I (NEB) and analyzed by Agilent 4200 TapeStation (Agilent). […]
As shown in FIG. 10 and FIG. 11, to find statistical significant difference between GABA and each conditions of the compounds, Dunnett's multiple comparison test using DNA mutation introduction efficiency, Indel (%), and exon skipping efficiency, was carried out. It was determined that if P value is less than 0.05, these is a statistically significant difference. […]
A solution for transduction containing 2′-deoxycytidine as a compound (A3) and sodium chloride as the (B) salt was prepared. […] Administration solution 1 was locally administered to the mouse right lower limb gastrocnemius and the activity to cleave a target gene was evaluated. […]

[2] = system: EGFP reporter cells (C2C12 cells); assay: EGFP-SSA assay: uptake of Cas9 protein/gRNA complex into cells (EGFP positive rate); assay type: cell-based, mouse; settings: Example 1; compound 100.0 mM; reaction solution 1 (550 mM sodium chloride, 1 mM HEPES, Cas9 protein/gRNA), 30 minutes
[3] = system: EGFP reporter cells (C2C12 cells); assay: Number of HOECHST cells detected (cell viability) in the EGFP-SSA assay; settings: Example 1, formula (2)
Experimental: To each of the solutions, a complex of gRNA and Cas9 protein was further dissolved. Mouse myoblasts (C2C12 cells) were contacted with each of the solutions in vitro, and target gene cleavage activity and cell viability were evaluated.

[4] = system: EGFP reporter cells (C2C12 cells); assay: EGFP-SSA assay: uptake of Cas9 protein/gRNA complex into cells (EGFP positive rate); assay type: cell-based, mouse; settings: Example 1; compound 250.0 mM; reaction solution 1 (550 mM sodium chloride, 1 mM HEPES, Cas9 protein/gRNA), 30 minutes
From the text: EGFP-SSA assay: an abbreviation of EGFP-single strand annealing assay. The reporter cassette shown in FIG. 1 is inserted in EGFP reporter cells. In the middle of the EGFP sequence of the cassette, MmDMD-Ex51 sequence is inserted. Since the presence of MmDMD-Ex51 sequence, by which EGFP ORF is divided, EGFP protein is not usually translated. However, when target sequence of MmDMD-Ex51 is cleaved by Cas9 protein/gRNA complex, the upstream region (EG part) and the downstream region (FP part) of EGFP ORF are annealed via a homology area into a single strand, with the result that a full-length EGFP ORF emerges to produce EGFP protein. Based on this principle, the ratio of the number of cells producing EGFP is checked by the EGFP-SSA assay. In this manner, the amount of Cas9 protein/gRNA complex delivered to cells can be predicted.
(§1) Cas9 protein (0.4 μg), tracrRNA (34.18 ng), MmDmd Ex51 crRNA (29.48 ng), a 1 M HEPES buffer (0.05 μL) and a 5 M aqueous sodium chloride solution (5.5 μL) were mixed and diluted with UltraPure DNase/RNase-Free Distilled Water up to a liquid volume of 37.5 μL so as to obtain final concentrations: 8 ng/μL Cas9 protein, 0.68 ng/μL tracrRNA, 0.59 ng/μL MmDmd Ex51 crRNA, 1 mM HEPES, 550 mM sodium chloride, and 250 mM compound. To this solution, a 1000 mM compound solution (12.5 μL) was added and the solution mixture was incubated at normal temperature for 15 minutes.
as §1, with “buffer (2.5” for “buffer (0.05”, “solution (4.85” for “solution (5.5”, “crRNA, 50” for “crRNA, 1”, “HEPES, 485” for “HEPES, 550”, “minutes. Note that, in the cases where the final concentrations of the compound are 0.69 mM, 25 mM, 100 mM, 125 mM, 160 mM, 200 mM and 500 mM, the compound stock solution was diluted with UltraPure DNase/RNase-Free Distilled Water up to concentrations of 2.76 mM, 100 mM, 400 mM, 500 mM, 640 mM, 800 mM and 2000 mM, respectively, and then, added. […]” for “minutes.”
Cas9 protein (2.0 μg), tracrRNA (170.9 ng), MmDmd Ex51 crRNA (147.4 ng), a 1 M HEPES buffer (12.5 μL), a 5 M aqueous sodium chloride solution (18.35 μL) and a 1 M aqueous GABA solution (62.5 μL) were mixed, diluted with UltraPure DNase/RNase-Free Distilled Water up to a liquid volume of 250 μL so as to obtain final concentrations: 8 ng/μL Cas9 protein, 0.68 ng/μL tracrRNA, 0.59 ng/μL MmDmd Ex51 crRNA, 50 mM HEPES, 250 mM GABA and 367 mM sodium chloride, and incubated at normal temperature for 15 minutes. Note that the addition amount of the 5 M aqueous sodium chloride solution was changed to 24.25 μL in the case of 485 mM sodium chloride and the addition amount was changed to 27.5 μL in the case of 550 mM sodium chloride, respectively.

Row | Compound | Genome editing (mutation introduction efficiency, indel (%)) ([1]; Example 5, administration solution 1: 250 mM 2′-deoxycytidine, sodium chloride 163, 233, 333, 433 or 533 mM, mRosa26 gRNA/Cas9, 50 μL for 3 consecutive days, FIG. 9) | Compound activity: EGFP positive rate (%) [2] | Relative ratio to GABA: Number of HOECHST cells ([3]; compound 100.0 mM vs 250 mM GABA positive control on the same plate) | Compound activity: EGFP positive rate (%) [4] | Genome editing efficiency (indel (%)) compared to 250 mM GABA ([1]; Example 6, administration solution 2: 25 mM or 250 mM 2′-deoxycytidine, 6-phospho-D-gluconic acid, N-carbamyl-L-aspartic acid or 2-deoxy-D-glucose-6-phosphate, 533 mM sodium chloride, 50 μL once, Dunnett's test, FIG. 10) | Relative ratio to GABA: Number of HOECHST cells ([3]; compound 250.0 mM vs 250 mM GABA positive control on the same plate)
1 | Nc1ccn([C@H]2C[C@H](O)[C@@H](CO)O2)c(=O)n1 [2′-Deoxycytidine] | Genome editing was confirmed | 1.10% | 1.01 | – | – | –
2 | O=CC[C@@H](O)[C@H](O)[C@H](O)COP(=O)(O)O [Oxy-D-glucose-6-phosphate, 2-deoxy-D-glucose-6-phosphate] | – | – | – | 1.38% | statistically significant results compared to GABA | 1.06
